Among the test systems are 786-0 renal; A549 NSCLC; HCC-2998 colon; MALME-3M melanoma; MDA-MB-231 breast; NCI-H226 lung; NCI/ADR-RES ovarian; OVCAR-3 ovarian; TK-10 renal; U251 CNS.
What all share (assay): DTP human tumour cell line panel, 48 h

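Values below derive from 48-hour exposures of cells grown in 96-well plates, with endpoints linearly interpolated between the two concentrations bracketing the appropriate inhibition level. Here, GI50 denotes the concentration required for 50% inhibition of growth. TGI denotes the concentration required for complete inhibition of growth.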

With `CN(CCCCCCCCNc1ccnc2ccccc12)Cc1ccc(-c2ccc(-c3ccc(C#N)cc3)s2)cc1`, the GI50 with 786-0 renal is 1.4 µM; with A549 NSCLC, 1.01 µM; in the assay with HCC-2998 colon it was 0.275 µM; with MALME-3M melanoma it was 0.903 µM; with MDA-MB-231 breast, 1.46 µM; with NCI-H226 lung, 1.17 µM. Also, the GI50 was 1.2 µM in the assay with NCI/ADR-RES ovarian, 0.647 µM in the assay with OVCAR-3 ovarian, 1.57 µM with TK-10 renal and 0.248 µM in the assay on U251 CNS. The TGI with 786-0 renal worked out at 3.25 µM; with A549 NSCLC, 2.94 µM; in the assay with HCC-2998 colon, 1.04 µM; in the assay with MALME-3M melanoma it was 2.21 µM; with MDA-MB-231 breast, 3.06 µM; in the assay with NCI-H226 lung, 3.17 µM. Also, the TGI worked out at 3.23 µM in the assay on NCI/ADR-RES ovarian, 2.07 µM with OVCAR-3 ovarian, 3.18 µM with TK-10 renal and 0.842 µM with U251 CNS.
Consider `CSc1nc(SC)c2c(C)c(Br)[nH]c2n1`, for which the total growth inhibition concentration (TGI) in the assay on 786-0 renal, in the assay with A549 NSCLC, with HCC-2998 colon, with MALME-3M melanoma, in the assay on MDA-MB-231 breast and in the assay with NCI-H226 lung was over 100 µM each time. The TGI in the assay on NCI/ADR-RES ovarian, in the assay with OVCAR-3 ovarian, with TK-10 renal and with U251 CNS was over 100 µM each time.
Regarding `O=c1oc2ccc(I)cc2c(=O)n1-c1ccc(I)cc1F`, the GI50 with 786-0 renal was 2.21 µM; with A549 NSCLC it was 3 µM; in the assay with HCC-2998 colon it was 2.8 µM; in the assay on MALME-3M melanoma it was 0.36 µM; in the assay with MDA-MB-231 breast it was 0.579 µM; with NCI-H226 lung it was 1.47 µM. Besides, the GI50 in the assay on NCI/ADR-RES ovarian was 0.568 µM; in the assay with OVCAR-3 ovarian, 0.44 µM; with TK-10 renal, 1.42 µM; in the assay on U251 CNS, 0.612 µM. Further, the TGI was 6.49 µM with 786-0 renal; over 51.8 µM in the assay with A549 NSCLC; 11.1 µM in the assay on HCC-2998 colon; 2.54 µM in the assay on MALME-3M melanoma; 6.14 µM in the assay on MDA-MB-231 breast; 5.88 µM in the assay with NCI-H226 lung. In addition, the TGI in the assay with NCI/ADR-RES ovarian was 5.69 µM; in the assay with OVCAR-3 ovarian, 9.75 µM; with TK-10 renal, 11.8 µM; in the assay with U251 CNS, over 45.3 µM.
In the case of `CCc1nc(N)nc(N)c1-c1ccc(N(C)Cc2ccccc2)c([N+](=O)[O-])c1`, the TGI with 786-0 renal was 30.3 µM; in the assay with A549 NSCLC, 16 µM; in the assay on HCC-2998 colon, 8.73 µM; in the assay on MALME-3M melanoma, 17.1 µM; in the assay on MDA-MB-231 breast, 36.1 µM; in the assay on NCI-H226 lung, 23.2 µM. Besides, the TGI in the assay on NCI/ADR-RES ovarian was determined as 21.4 µM; with OVCAR-3 ovarian, 22.6 µM; with TK-10 renal, 34.2 µM; in the assay with U251 CNS, 24.5 µM.
`CC[C@H](C)C(=O)O[C@H]1CCC=C2C=C[C@H](C)[C@H](CC[C@@H]3C[C@@H](O)CC(=O)O3)[C@H]21`: the GI50 in the assay on 786-0 renal is 8.95 µM; in the assay on A549 NSCLC it was 11.7 µM; with HCC-2998 colon, 36.9 µM; in the assay on MDA-MB-231 breast it was 0.352 µM; in the assay on NCI-H226 lung it was 6.82 µM; with NCI/ADR-RES ovarian it was 3.34 µM. Further, the GI50 in the assay on TK-10 renal is 22.5 µM; in the assay with U251 CNS it was 1.13 µM. The TGI in the assay with 786-0 renal was over 74.5 µM; in the assay with A549 NSCLC, over 100 µM; in the assay with HCC-2998 colon it was over 100 µM; in the assay with MALME-3M melanoma, over 100 µM; with MDA-MB-231 breast, 2.54 µM; in the assay on NCI-H226 lung it was over 82.2 µM. In addition, the TGI in the assay with NCI/ADR-RES ovarian, in the assay with OVCAR-3 ovarian, in the assay with TK-10 renal and in the assay with U251 CNS was over 100 µM each time.
On to `O=C(CS(=O)c1nc2ccccc2nc1-c1ccccc1)Nc1ccc(Cl)cc1` (stereo not drawn), for which the GI50 in the assay with 786-0 renal is 26.5 µM; in the assay with A549 NSCLC it was 32.3 µM; in the assay with HCC-2998 colon, 28.6 µM; in the assay on MALME-3M melanoma, 19.1 µM; in the assay with MDA-MB-231 breast, 18.5 µM; with NCI-H226 lung it was 23.1 µM. For the same molecule, the GI50 in the assay on NCI/ADR-RES ovarian was 26.4 µM; in the assay on OVCAR-3 ovarian, 21.5 µM; with TK-10 renal, 27.8 µM; with U251 CNS it was 21.8 µM. Further, the TGI is 71.7 µM in the assay with 786-0 renal; over 100 µM in the assay on A549 NSCLC; 84.9 µM in the assay on HCC-2998 colon; 46.7 µM in the assay on MALME-3M melanoma; 49.1 µM with MDA-MB-231 breast; 47.8 µM in the assay with NCI-H226 lung. In addition, the TGI in the assay on NCI/ADR-RES ovarian was 81.2 µM; in the assay on OVCAR-3 ovarian, 51.2 µM; with TK-10 renal, 82.7 µM; in the assay with U251 CNS, 61.6 µM.
As to `Cl.[O-]c1cccc2cccnc12.[O-]c1cccc2cccnc12.[O-]c1cccc2cccnc12.[O-]c1cccc2cccnc12.[Ti+4]`, the GI50 in the assay on 786-0 renal was 0.567 µM; with A549 NSCLC, 0.89 µM; in the assay with HCC-2998 colon, 2.1 µM; with MALME-3M melanoma it was 1.91 µM; in the assay on MDA-MB-231 breast, 1.26 µM; in the assay with NCI-H226 lung, 7.9 µM. Besides, the GI50 in the assay on NCI/ADR-RES ovarian is 0.243 µM; in the assay on OVCAR-3 ovarian it was 0.121 µM; in the assay with TK-10 renal it was 53.7 µM; with U251 CNS, 2.53 µM. Also, the TGI in the assay on 786-0 renal is 4.41 µM; in the assay on A549 NSCLC, 12 µM; in the assay with HCC-2998 colon, 4.5 µM; in the assay with MALME-3M melanoma it was over 40.2 µM; in the assay with MDA-MB-231 breast, over 100 µM; with NCI-H226 lung it was over 89.9 µM. In addition, the TGI in the assay with NCI/ADR-RES ovarian was 11.5 µM; in the assay on OVCAR-3 ovarian, 0.621 µM; in the assay with TK-10 renal it was over 100 µM; in the assay on U251 CNS, 30.5 µM.
Turning to `Cc1cc2oc(=O)cc(OC/C=C3/CCC(=O)O3)c2cc1C`, the GI50 with 786-0 renal was 2.57 µM; in the assay with A549 NSCLC it was 13.4 µM; in the assay on HCC-2998 colon, 15.4 µM; in the assay with MALME-3M melanoma, 2.39 µM; in the assay with MDA-MB-231 breast, 7.71 µM; in the assay on NCI-H226 lung, 10.8 µM. Also, the GI50 in the assay on NCI/ADR-RES ovarian is 5.09 µM; with OVCAR-3 ovarian, 2.93 µM; in the assay on TK-10 renal it was 2 µM; in the assay with U251 CNS, 3.42 µM. In addition, the TGI in the assay on 786-0 renal was 10.4 µM; in the assay with A549 NSCLC, 27.1 µM; in the assay with HCC-2998 colon it was 31 µM; in the assay on MALME-3M melanoma it was 7.62 µM; in the assay on MDA-MB-231 breast, 21 µM; with NCI-H226 lung, 51.1 µM. The TGI came out at 23.2 µM in the assay with NCI/ADR-RES ovarian, 11.4 µM in the assay on OVCAR-3 ovarian, 8.34 µM in the assay with TK-10 renal and 15.1 µM in the assay with U251 CNS.

For the origin of these results see PubChem BioAssay (NCI).
